The source of these data is patent US8765748B2, “Indazolyl, benzimidazolyl, benzotriazolyl substituted indolinone derivatives as kinase inhibitors useful in the treatment of cancer” (University Health Network, priority 2007, dated 2014).

One may read the % Inhibition as the change of the read-out against control, counted positive when it falls. Low values mean a response near the control, high ones a response far below the control. The IC50 is the concentration at which inhibition is half-maximal.

Experiment [1] concerns HCT116+/− colon cancer cell line. The experiment in a line: Cell growth inhibition, SRB assay, extended panel. Format: cell-based. Conditions: Homo sapiens, HCT-116, read-out: GI50 Range, HCT116+/−. As for the experimental part: (§1) Breast cancer cells (MCF-7, MDA-MB-468, HCC1954), colon cancer cells (SW620) and lung cancer cells (A549), together with human mammary epithelial primary cells (HMEC), were seeded (1000 to 4000 per 80 μl per well depending on the cell growth rate) into 96 well plates, 24 hours before compound overlay. Compounds were prepared as 10 mM stock solutions in 100% DMSO which were diluted with DMEM (Dulbecco's Modified Eagle's Medium) cell growth Medium (Invitrogen, Burlington, ON, Canada) containing 10% FBS (Fetal Bovine Serum) to concentrations ranging from 50 nM to 250 μM. Aliquots (20 μl) from each concentration were overlaid to 80 μl of the pre-seeded cells in the 96 well plates to make final concentrations of 10 nM to 50 μM. The cells were cultured for 5 days before the Sulforhodamine B assay (SRB) was performed to determine the compound's cell growth inhibition activity.
(§2) Sulforhodamine B (purchased from Sigma, Oakville, ON, Canada) is a water-soluble dye that binds to the basic amino acids of the cellular proteins. Thus, colorimetric measurement of the bound dye provides an estimate of the total protein mass that is related to the cell number. the cells are fixed in situ by gently aspirating off the culture media and adding 50 μl ice cold 10% Tri-chloroacetic Acid (TCA) per well and incubate at 4° C. for 30-60 min, The plates are washed with water five times and allowed to air dry for 5 min. Addition of 50 μl 0.4% (w/v) SRB solution in 1% (v/v) acetic acid to each well and incubatation for 30 min at RT completes the staining reaction. Following staining, plates are washed four times with 1% acetic acid to remove unbound dye and then allowed to air dry for 5 min. The stain is solubilized with 100 μl of 10 mM Tris pH10.5 per well. Absorbance is read at 570 nm.
(§3) The percentage (%) of relative growth inhibition was calculated by comparing to DMSO treated only cells (100%). GI50's were determined for compounds with cytotoxic activity. The GI50 was calculated using GraphPad PRISM software (GraphPad Software, Inc., San Diego, Calif., USA).
(§4) In addition to the cell lines tested as described above, selected compounds have been assayed against an extended panel. […] The sulforhodamine B assay (SRB) described above was use to assay test compounds against the extended panel (Table 9).
In general terms: In SRB staining, fixed cells bind dye roughly in proportion to their protein.

The test system of experiment [2] is 184A1 immortalized breast cell line. In words: Cell growth inhibition, SRB assay, extended panel. Format: cell-based. The settings on record: read-out: GI50 Range, 184A1. How it is done:
as §1, §2, §3, §4

For experiment [3], the system named is SKBR3 breast cancer cell line. In words: Cell growth inhibition, SRB assay, extended panel. Format: cell-based. Conditions: Homo sapiens, SK-BR-3, read-out: GI50 Range, SKBR3. How it is done:
as §1, §2, §3, §4

Experiment [4] concerns BT474 breast cancer cell line. In words: Cell growth inhibition, SRB assay, extended panel. In kind it is cell-based. Conditions: Homo sapiens, BT-474, read-out: GI50 Range, BT474. How it is done:
as §1, §2, §3, §4

The test system of experiment [5] is HS578T breast cancer cell line. The experiment in a line: Cell growth inhibition, SRB assay, extended panel. In kind it is cell-based. Conditions: Homo sapiens, Hs-578T, read-out: GI50 Range, HS578T. How it is done: as §1, §2, §3, §4
In experiment [6] the test system is MDA-MB-231 breast cancer cell line. The experiment in a line: Cell growth inhibition, SRB assay, extended panel. Format: cell-based. Conditions: Homo sapiens, read-out: GI50 Range, MDA-MB-231. How it is done: as §1, §2, §3, §4
Experiment [7] has as its system HCT116+/+ colon cancer cell line. The experiment in a line: Cell growth inhibition, SRB assay, extended panel. Format: cell-based. Conditions: Homo sapiens, HCT-116, read-out: GI50 Range, HCT116+/+. How it is done:
as §1, §2, §3, §4

The test system of experiment [8] is Colo 205 colon cancer cell line. The experiment in a line: Cell growth inhibition, SRB assay, extended panel. The settings on record: Homo sapiens, read-out: GI50 Range, Colo 205. In kind it is cell-based. As for the experimental part: as §1, §2, §3, §4
Experiment [9] deals with T47 D breast cancer cell line. In words: Cell growth inhibition, SRB assay, extended panel. In kind it is cell-based. Conditions: Homo sapiens, T47D; SRB, extended panel; read-out: GI50 Range, T47 D. As for the experimental part: as §1, §2, §3, §4
For a further experiment, the system named is AMPKa. The experiment in a line: Kinase Selectivity Assay (CEREP, HTRF). Format: biochemical, human. As for the experimental part:
(§5) kinase, ROCK2, RSK2, Src kinase, Syk, and TRKA. The % Inhibition was determined
(In general: Time-resolved FRET reads energy transfer from a long-lived donor to a nearby acceptor.)

The target of the next experiment is T1, KDR (Homo sapiens, UniProt P35968).
T1 construct: purchased Millipore (assay service)
T1 sequence (P35968 20-1356): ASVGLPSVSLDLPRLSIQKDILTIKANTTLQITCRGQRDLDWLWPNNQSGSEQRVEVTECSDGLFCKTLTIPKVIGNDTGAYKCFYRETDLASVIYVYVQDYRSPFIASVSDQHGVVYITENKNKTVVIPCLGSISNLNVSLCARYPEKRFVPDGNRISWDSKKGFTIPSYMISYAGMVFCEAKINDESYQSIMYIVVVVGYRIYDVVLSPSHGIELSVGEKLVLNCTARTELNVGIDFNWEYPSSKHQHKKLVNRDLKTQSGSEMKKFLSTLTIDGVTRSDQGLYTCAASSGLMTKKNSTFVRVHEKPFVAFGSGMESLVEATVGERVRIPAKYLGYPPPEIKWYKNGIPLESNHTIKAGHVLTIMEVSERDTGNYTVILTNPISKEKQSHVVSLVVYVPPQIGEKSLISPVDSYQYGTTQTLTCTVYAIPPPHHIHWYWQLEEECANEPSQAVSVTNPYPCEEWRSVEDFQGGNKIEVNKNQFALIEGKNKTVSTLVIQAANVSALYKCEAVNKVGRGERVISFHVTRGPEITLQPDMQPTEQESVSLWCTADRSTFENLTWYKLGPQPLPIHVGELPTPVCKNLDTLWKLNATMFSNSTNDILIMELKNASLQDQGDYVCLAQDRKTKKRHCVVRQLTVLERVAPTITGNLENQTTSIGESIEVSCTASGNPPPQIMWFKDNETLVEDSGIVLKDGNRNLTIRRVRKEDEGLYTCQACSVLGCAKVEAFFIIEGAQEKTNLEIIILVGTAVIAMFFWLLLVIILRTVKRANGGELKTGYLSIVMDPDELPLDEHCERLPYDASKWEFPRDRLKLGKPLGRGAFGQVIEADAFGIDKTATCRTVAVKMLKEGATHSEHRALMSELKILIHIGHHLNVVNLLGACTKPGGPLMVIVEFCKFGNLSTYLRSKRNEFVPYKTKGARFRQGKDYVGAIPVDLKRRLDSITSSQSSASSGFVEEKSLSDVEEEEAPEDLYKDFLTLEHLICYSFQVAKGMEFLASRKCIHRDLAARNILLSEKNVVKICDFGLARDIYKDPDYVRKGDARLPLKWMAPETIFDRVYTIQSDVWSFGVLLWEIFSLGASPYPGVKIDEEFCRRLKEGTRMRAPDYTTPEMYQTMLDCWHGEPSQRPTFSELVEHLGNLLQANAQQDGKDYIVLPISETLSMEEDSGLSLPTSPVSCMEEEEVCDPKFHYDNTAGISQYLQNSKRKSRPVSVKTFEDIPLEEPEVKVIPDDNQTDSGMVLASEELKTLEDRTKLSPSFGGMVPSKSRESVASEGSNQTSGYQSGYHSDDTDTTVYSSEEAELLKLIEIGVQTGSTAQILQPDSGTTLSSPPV
In words: Millipore kinase assay, radiolabelled phosphopeptide filter binding, IC50 estimate. In kind it is biochemical. Conditions: estimated from inhibition at three compound concentrations; ATP at the Km. How it is done:
Kinase assays at Millipore were performed using a radiolabelled phosphopeptide filter binding detection system, in duplicate, at each compound concentration. The ATP substrate concentration in the reactions was at the Km for each enzyme.
To allow for a more direct comparison of compound inhibition, an IC50 value was estimated from the inhibition determined at three compound concentrations. Several assumptions were made to allow this calculation using a 4 parameter non linear curve fit model, including full inhibition set at 100%, no inhibition set to 0%, and a curve fit parameter set at 1. The inflection point was reported as the estimated IC50.

In a further experiment the target is Abl (Homo sapiens, UniProt P00519). In words: Kinase Selectivity Assay (CEREP, HTRF). In kind it is biochemical. On the set-up: CEREP, France (ran the assays). The settings on record: read-out: % Inhibition at 10 μM Concentration, Abl. How it is done: as §5
Chain of Abl (P00519 whole entry): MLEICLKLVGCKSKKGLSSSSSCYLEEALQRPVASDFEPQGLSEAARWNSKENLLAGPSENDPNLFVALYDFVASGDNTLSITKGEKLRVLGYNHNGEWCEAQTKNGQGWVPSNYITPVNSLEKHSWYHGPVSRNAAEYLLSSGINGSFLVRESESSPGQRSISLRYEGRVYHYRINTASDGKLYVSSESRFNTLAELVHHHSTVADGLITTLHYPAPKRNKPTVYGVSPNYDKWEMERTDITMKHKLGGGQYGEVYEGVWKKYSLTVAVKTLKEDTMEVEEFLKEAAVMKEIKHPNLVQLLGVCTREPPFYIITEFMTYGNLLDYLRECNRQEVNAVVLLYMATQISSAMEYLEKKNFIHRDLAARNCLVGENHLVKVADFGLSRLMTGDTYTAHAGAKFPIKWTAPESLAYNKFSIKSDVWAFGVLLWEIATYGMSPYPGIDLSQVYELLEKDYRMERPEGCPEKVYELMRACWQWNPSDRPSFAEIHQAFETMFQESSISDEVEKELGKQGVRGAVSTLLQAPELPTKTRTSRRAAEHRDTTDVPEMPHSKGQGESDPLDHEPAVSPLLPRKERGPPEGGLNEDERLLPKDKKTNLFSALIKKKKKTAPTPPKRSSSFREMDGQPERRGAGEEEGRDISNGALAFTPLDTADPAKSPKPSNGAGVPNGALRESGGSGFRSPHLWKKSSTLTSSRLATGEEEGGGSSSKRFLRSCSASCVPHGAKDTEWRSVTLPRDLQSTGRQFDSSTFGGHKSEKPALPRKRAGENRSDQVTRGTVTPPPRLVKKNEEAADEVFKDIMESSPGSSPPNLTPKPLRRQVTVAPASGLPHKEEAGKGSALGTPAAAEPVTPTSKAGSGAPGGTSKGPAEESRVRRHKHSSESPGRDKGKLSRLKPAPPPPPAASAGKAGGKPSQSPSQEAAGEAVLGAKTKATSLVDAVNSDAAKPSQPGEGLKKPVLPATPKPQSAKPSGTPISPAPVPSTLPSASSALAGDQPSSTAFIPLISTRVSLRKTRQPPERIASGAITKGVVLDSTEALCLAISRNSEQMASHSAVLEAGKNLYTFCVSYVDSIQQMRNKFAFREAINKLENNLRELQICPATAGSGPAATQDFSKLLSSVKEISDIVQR
Experiment [10] concerns SK-N-SH brain cancer cell line. The experiment in a line: Cell growth inhibition, SRB assay, extended panel. In kind it is cell-based. Conditions: Homo sapiens, read-out: GI50 Range, SK-N-SH. How it is done: as §1, §2, §3, §4
The test system of experiment [11] is H358 lung cancer cell line. The experiment in a line: Cell growth inhibition, SRB assay, extended panel. Format: cell-based. The settings on record: Homo sapiens, NCI-H358, read-out: GI50 Range, H358. As for the experimental part:
as §1, §2, §3, §4

For experiment [12], the system named is OVCAR-3 ovarian cancer cell line. In words: Cell growth inhibition, SRB assay, extended panel. Conditions: Homo sapiens, read-out: GI50 Range, OVCAR-3. Format: cell-based. As for the experimental part: as §1, §2, §3, §4
The test system of another experiment is 518A2 melanoma cell line. The experiment in a line: Cell growth inhibition, SRB assay, extended panel. In kind it is cell-based. Conditions: Homo sapiens, read-out: GI50 Range, 518A2. As for the experimental part: as §1, §2, §3, §4
Experiment [13] deals with SK-OV-3 ovarian cancer cell line. The experiment in a line: Cell growth inhibition, SRB assay, extended panel. Format: cell-based. Conditions: Homo sapiens, read-out: GI50 Range, SK-OV-3. As for the experimental part: as §1, §2, §3, §4
Experiment [14] has as its system A172 brain cancer cell line. The experiment in a line: Cell growth inhibition, SRB assay, extended panel. Format: cell-based. The settings on record: Homo sapiens, A 172, read-out: GI50 Range, A172. How it is done:
as §1, §2, §3, §4

The subject of experiment [15] is Hs683 brain cancer cell line. The experiment in a line: Cell growth inhibition, SRB assay, extended panel. Format: cell-based. The settings on record: Homo sapiens, Hs 683, read-out: GI50 Range, Hs683. As for the experimental part:
as §1, §2, §3, §4

For experiment [16], the system named is SW 626 ovarian cancer cell line. In words: Cell growth inhibition, SRB assay, extended panel. The settings on record: Homo sapiens, SW626, read-out: GI50 Range, SW 626. Format: cell-based. As for the experimental part: as §1, §2, §3, §4
Experiment [17] has as its system HCT-15 colon cancer cell line. In words: Cell growth inhibition, SRB assay, extended panel. In kind it is cell-based. Conditions: Homo sapiens, read-out: GI50 Range, HCT-15. How it is done:
as §1, §2, §3, §4

The test system of experiment [18] is PC-3 prostate cancer cell line. The experiment in a line: Cell growth inhibition, SRB assay, extended panel. In kind it is cell-based. Conditions: read-out: GI50 Range, PC-3. How it is done: as §1, §2, §3, §4

As to `COc1ccc2c(c1)C(=Cc1ccc3c(-c4ccc(N5CCN(C)CC5)nc4)n[nH]c3c1)C(=O)N2` (mixture of isomers) [Example A97, (E and Z)-5-methoxy-3-((3-(6-(4-methylpiperazin-1-yl)pyridin-3-yl)-1H-indazol-6-yl)methylene)indolin-2-one], the GI50 in experiment [1], in experiment [2], in [3], in experiment [4], in [5] and in experiment [6] was under 5 µM throughout. Moreover, the GI50 in experiment [7], in experiment [8] and in [9] was under 5 µM in each case. Besides, the “% Inhibition at 10 μM Concentration, AMPKalpha” value (from here on “% Inhibition”) with AMPKa was 76%. The IC50 at KDR was under 5 µM. The inhibition at 10 µM on Abl turned out to be 99%.

`O=C1Nc2ncc(Br)cc2C1=Cc1ccc2c(/C=C/c3ccncc3)n[nH]c2c1` (mixture of isomers) [Example A109, (E and Z)-5-bromo-3-((3-((E)-2-(pyridin-4-yl)vinyl)-1H-indazol-6-yl)methyl-ene)-1H-pyrrolo[2,3-b]pyridin-2(3H)-one]: the GI50 in experiment [1] is under 5 µM; in experiment [2], under 5 µM; in experiment [3] it was over 50 µM; in experiment [10], under 5 µM; in experiment [11] it was under 5 µM; in [12] it was under 5 µM. The GI50 with 518A2 melanoma cell line was under 5 µM; in [13] it was 5 to 20 µM; in experiment [14] it was under 5 µM; in experiment [4] it was 5 to 20 µM; in [15], under 5 µM; in experiment [5], under 5 µM. Also, the GI50 was 5 to 20 µM in experiment [16]; under 5 µM in experiment [6]; under 5 µM in experiment [17]; under 5 µM in experiment [7]; under 5 µM in experiment [8]; under 5 µM in [18]. Further, the GI50 in experiment [9] is under 5 µM.

In the case of `O=C1Nc2ccccc2/C1=C\c1ccc2[nH]nnc2c1` [Example A1, (E)-3-((1H-benzo[d][1,2,3]triazol-5-yl)methylene)indolin-2-one], in the experiment with AMPKa, the “% Inhibition” value was 15%. Further, the inhibition at 10 µM at Abl came to 34%.

Consider `O=C1Nc2ccccc2/C1=C\c1ccc2c(/C=C/c3ccccc3Cl)n[nH]c2c1` [Example A60, (E)-3-((3-((E)-2-chlorostyryl)-1H-indazol-6-yl)methylene)indolin-2-one], for which the “% Inhibition” value with AMPKa is reported as 8%. The inhibition at 10 µM on Abl was determined as 40%.

Consider `CN1CCN(c2ccc(/C=C/c3n[nH]c4cc(C=C5C(=O)Nc6ccccc65)ccc34)cn2)CC1` (mixture of isomers) [Example A108, (E and Z)-3-((3-((E)-2-(6-(4-methylpiperazin-1-yl)pyridin-3-yl)vinyl)-1H-indazol-6-yl)methylene)indolin-2-one], for which the GI50 in [1], in [2], in experiment [3], in [10], in experiment [11] and in experiment [12] was under 5 µM in each case. Besides, the GI50 (in the experiment on 518A2 melanoma cell line; in experiment [13]; in experiment [14]; in [4]; in experiment [15]; in [5]) was under 5 µM throughout. Further, the GI50 in experiment [16], in experiment [6], in [17], in experiment [7], in [8] and in [18] was under 5 µM each time. The GI50 in experiment [9] was under 5 µM.

Regarding `O=C1Nc2ccccc2/C1=C\c1ccc2cn[nH]c2c1` [Example A5, (E)-3-((1H-indazol-6-yl)methylene)indolin-2-one], the “% Inhibition” value with AMPKa is 54%. The inhibition at 10 µM on Abl was determined as 24%.

As for `O=C1Nc2ccccc2C1=Cc1ccc2c(/C=C/c3ccccn3)n[nH]c2c1` (mixture of isomers) [Example A41, (E and Z)-3-((3-((E)-2-(pyridin-2-yl)vinyl)-1H-indazol-6-yl)methylene)indolin-2-one], the GI50 is over 50 µM in experiment [1]; 20 to 50 µM in experiment [2]; under 5 µM in experiment [3]; under 5 µM in [10]; under 5 µM in experiment [11]; over 50 µM in experiment [12]. For the same compound, the GI50 is under 5 µM with 518A2 melanoma cell line; over 50 µM in [13]; under 5 µM in experiment [14]; over 50 µM in experiment [4]; under 5 µM in [15]; 5 to 20 µM in experiment [5]. Besides, the GI50 is over 50 µM in [16]; 5 to 20 µM in experiment [6]; under 5 µM in [17]; over 50 µM in experiment [7]; under 5 µM in experiment [8]; 20 to 50 µM in experiment [18]. In addition, in [9], the GI50 is under 5 µM. Moreover, in the experiment with AMPKa, the “% Inhibition” value is given as 81%. At KDR, the IC50 is under 5 µM. Also, the inhibition at 10 µM on Abl is 100%.
